Test results as given in US8440710B2, “HSL inhibitors useful in the treatment of diabetes” (Hoffmann-La Roche Inc., priority 2009, dated 2013).

Target: T1, human HSL (Homo sapiens, UniProt Q05469)
T1 construct: generate a full length human HSL ORF with a 3′-His6 tag; made in house; host or cells: High 5 insect cells (baculovirus, pFast-BAC)
T1 sequence (Q05469 1-1076): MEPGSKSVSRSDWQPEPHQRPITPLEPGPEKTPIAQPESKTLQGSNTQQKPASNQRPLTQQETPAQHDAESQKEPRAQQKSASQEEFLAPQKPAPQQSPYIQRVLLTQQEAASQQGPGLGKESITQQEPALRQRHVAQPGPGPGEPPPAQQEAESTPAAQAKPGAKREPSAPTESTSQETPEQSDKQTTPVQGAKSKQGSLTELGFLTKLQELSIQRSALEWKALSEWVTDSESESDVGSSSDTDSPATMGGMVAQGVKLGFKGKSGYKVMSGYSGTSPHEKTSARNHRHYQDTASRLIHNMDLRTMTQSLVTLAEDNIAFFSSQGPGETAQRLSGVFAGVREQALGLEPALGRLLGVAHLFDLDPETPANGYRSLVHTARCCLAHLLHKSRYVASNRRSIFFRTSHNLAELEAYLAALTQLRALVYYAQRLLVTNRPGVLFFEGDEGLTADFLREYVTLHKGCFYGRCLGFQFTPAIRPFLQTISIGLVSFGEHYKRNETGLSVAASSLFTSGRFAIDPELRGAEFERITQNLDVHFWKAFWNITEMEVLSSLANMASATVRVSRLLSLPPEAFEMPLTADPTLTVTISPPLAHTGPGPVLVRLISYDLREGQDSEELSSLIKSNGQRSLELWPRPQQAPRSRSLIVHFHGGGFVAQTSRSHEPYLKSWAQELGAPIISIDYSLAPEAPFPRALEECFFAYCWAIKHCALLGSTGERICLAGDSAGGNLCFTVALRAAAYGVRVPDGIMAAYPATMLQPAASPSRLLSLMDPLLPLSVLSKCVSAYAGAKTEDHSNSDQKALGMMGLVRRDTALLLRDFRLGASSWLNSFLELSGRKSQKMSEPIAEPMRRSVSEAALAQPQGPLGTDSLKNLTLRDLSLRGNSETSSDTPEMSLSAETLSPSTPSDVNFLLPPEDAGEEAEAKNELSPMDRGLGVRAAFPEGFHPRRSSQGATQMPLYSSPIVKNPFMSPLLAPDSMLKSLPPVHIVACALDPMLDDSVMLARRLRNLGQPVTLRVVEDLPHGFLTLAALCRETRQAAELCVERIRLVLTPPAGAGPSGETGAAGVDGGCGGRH
Experiment: Human Hormone-Sensitive Lipase (HSL) enzyme inhibition assay (colorimetric, DMPT substrate)
Format: biochemical
Conditions: human full length HSL-His6, 2,3-dimercapto-1-propanol tributyrate substrate, 37° C. 20 minutes, absorbance at 405 nm; read-out: HSL hum IC50
Description: Production of Human Full Length Hormone Sensitive Lipase-His^6:
1) Cloning: cDNA was prepared from commercial human brain polyA+ RNA and used as a template in overlapping PCR to generate a full length human HSL ORF with a 3′-His6 tag. This full length insert was cloned into the pFast-BAC vector and the DNA-sequence of several single clones was verified. DNA from a correct full length clone with the 3′His6 tag was used to transform the E. coli strain DH10BAC. Resulting bacmid DNA was used to generate a titered baculovirus stock for protein generation. The sequence of the encoded HSL conforms to Swissprot entry Q05469, with the additional C-terminal His6-tag. 2) Protein purification: Culture: 5.5 L, High 5 cells expressing human full length HSL-His^6, 48 hr., containing 25 μM E-64. Cell count: […], 90% viable. Cells were thawed. On ice, cells were suspended in Base Buffer containing 10% glycerol, 25 mM Tris-Cl, 300 mM NaCl, 10 mM imidazole, 10 mM 2-mercaptoethanol, 2 μg pepstatin/ml, 2 μg leupeptin/ml, 2 μg antipain/ml, pH 8.0 at 4° C. in a final volume of 475 ml with 3.75×10^7 cells/ml. […] was done at 3×30 sec., Lubrol PX was added to 0.2% final concentration followed by stirring for 15 min. at 4° C. and centrifugation at 25 k×g, 60 min., 4° C. Soluble proteins were mixed with 60 ml of pre-washed and equilibrated Ni-NTA Agarose (Qiagen 30210) followed by tumbling end-over-end, 45 min., 4° C., centrifugation 1000 rpm 5 min and letting resin settle 5 min. Supernatant was removed, the resin washed in the centrifuge vessel using 5 volumes of Base Buffer containing 0.2% Lubrol PX. Centrifugation was done again, then the supernatant discarded. The resin was poured onto a 0.8 μm membrane in a disposable filter unit (Nalge 450-0080), and washed with 5 volumes of Base Buffer containing 0.2% Lubrol PX. It was then washed with 30 volumes of Base Buffer containing 60 mM imidazole pH 7.5 at 4° C. The protein was eluated with 5 volumes of 25 mM Tris-Cl, 300 mM NaCl, 200 mM imidazole, 10 mM 2-mercaptoethanol, pH 7.5 at 4° C. by tumbling resin with buffer end-over-end, 30 min., 4° C. The resin was captured on a 0.2 μm membrane disposable filter unit (Millipore SCGP U02 RE) and the eluate collected in the reservoir. The eluate was concentrated using a 30 k MWCO centrifugal filter device (Sartorius Vivascience Vivacell 100, VC1022), to 20 ml. It was then dialyzed overnight at 4° C., two times against 2 L of 10% glycerol, 25 mM Tris-Cl, 300 mM NaCl, 0.2 mM EDTA, 0.2 mM DTT, pH 7.5 at 4° C. The protein was filtered using a 0.22 μm disposable filter unit (Millipore SCGP00525). The protein concentration was calculated from absorbance at 280 nm, using 280=0.67 cm-1 mg-1. Yield was 235 mg, total. The protein was stored at −80° C. Human Hormone-Sensitive Lipase (HSL) Enzyme Inhibition Assay:
HSL enzyme activity was measured by a colorimetric assay using 2,3-dimercapto-1-propanol tributyrate (Aldrich, St. Louis, Mo.) as a substrate. Typically, 1.5 mM 2,3-dimercapto-1-propanol tributyrate (DMPT) in 100 mM MOPS, pH 7.2, 0.2 mg/ml fatty acid-free BSA was prepared by sonication at 4° C. to homogenous suspension. Test compounds (2 mM stock in DMSO) were diluted 3 fold in series in DMSO. Compound solutions were diluted 24 fold in 1.5 mM DMPT containing solution and 18 ul per well was added to 384-well microplates (Corning Costar). Twelve microliters per well of human HSL (15 ug/ml) was added and the reaction mixture was incubated at 37° C. for 20 minutes. Six microliters of 12 mM dithio-bis-(2-nitrobenzoic acid) (DTNB) in DMSO plus 1.2% SDS and 0.6% Triton X-100 were added and the mixture was incubated at room temperature for 15 minutes. Product production was monitored by reading absorbance at 405 nm on an Envision Reader (PerkinElmer Life and Analytical Sciences, Shelton, Conn.).

SMILES | IC50 [nM]
O=C1N(c2ccc(C3CC3)cc2)CC[C@]12CC[C@H](O)CC2 [Example 39, (5α,8α)-2-(4-Cyclopropyl-phenyl)-8-hydroxy-2-aza-spiro[4.5]decan-1-one] | 560
COc1ccc(N2CC[C@]3(CC[C@H](OCc4ccccc4)CC3)C2=O)cc1 [Example 40, (5α,8α)-8-Benzyloxy-2-(4-methoxy-phenyl)-2-aza-spiro[4.5]decan-1-one] | 4590
CCO[C@H]1CC[C@]2(CCN(c3ccc(OC(F)(F)F)cc3)C2=O)CC1 [Example 41, (5α,8α)-8-Ethoxy-2-(4-trifluoromethoxy-phenyl)-2-aza-spiro[4.5]decan-1-one] | 390
CCCO[C@H]1CC[C@]2(CCN(c3ccc(OC(F)(F)F)cc3)C2=O)CC1 [Example 42, (5α,8α)-8-Propoxy-2-(4-trifluoromethoxy-phenyl)-2-aza-spiro[4.5]decan-1-one] | 320
CCc1ccc(N2CC[C@]3(CC[C@H](OCc4ccccc4)CC3)C2=O)cc1 [Example 43, (5α,8α)-8-Benzyloxy-2-(4-ethyl-phenyl)-2-aza-spiro[4.5]decan-1-one] | 740
CCCNC(=O)O[C@H]1CC[C@]2(CCN(c3ccc(CC)cc3)C2=O)CC1 [Example 44, Propyl-carbamic acid [(5α,8α)-2-(4-ethyl-phenyl)-1-oxo-2-aza-spiro[4.5]dec-8-yl]ester] | 1480
CCc1ccc(N2CC[C@]3(CC[C@H](OC(=O)NCc4cccc(F)c4)CC3)C2=O)cc1 [Example 45, (3-Fluoro-benzyl)-carbamic acid [(5α,8α)-2-(4-ethyl-phenyl)-1-oxo-2-aza-spiro[4.5]dec-8-yl]ester] | 1110
COc1ccc(N2CC[C@]3(CC[C@H](Oc4ccccc4)CC3)C2=O)cc1 [Example 46, (5α,8α)-2-(4-Methoxy-phenyl)-8-phenoxy-2-aza-spiro[4.5]decan-1-one] | 4240
COc1ccc(N2CCC3(CC=CCC3)C2=O)cc1 (centres unmarked) [Example 47, 2-(4-Methoxy-phenyl)-2-aza-spiro[4.5]dec-7-en-1-one] | 6750
COc1ccc(N2CC[C@]3(CC[C@@H](Oc4ccccc4)CC3)C2=O)cc1 [Example 48, (5α,8β)-2-(4-Methoxy-phenyl)-8-phenoxy-2-aza-spiro[4.5]decan-1-one] | 1710
O=C1N(c2ccc(OC(F)(F)F)cc2)CC[C@]12CC=CCC2 [Example 50, 2-(4-Trifluoromethoxy-phenyl)-2-aza-spiro[4.5]dec-7-en-1-one] | 200
O=C1N(c2ccc(OC(F)(F)F)cc2)CC[C@]12CC[C@@H]([S+]([O-])c1ccccc1)CC2 (stereo partly drawn) [Example 51, (5α,8β)-8-Benzenesulfinyl-2-(4-trifluoromethoxy-phenyl)-2-aza-spiro[4.5]decan-1-one] | 20
O=C1N(c2ccc(OC(F)(F)F)cc2)CC[C@]12CC[C@H](Sc1ccccc1)CC2 [Example 52, (5α,8α)-8-Phenylsulfanyl-2-(4-trifluoromethoxy-phenyl)-2-aza-spiro[4.5]decan-1-one] | 2270
O=C1N(c2ccc(OC(F)(F)F)cc2)CC[C@]12CC[C@@H](S(=O)(=O)c1ccccc1)CC2 [Example 53, (5α,8β)-8-Benzenesulfonyl-2-(4-trifluoromethoxy-phenyl)-2-aza-spiro[4.5]decan-1-one] | 30
O=C1CCC2(CC1)CCN(c1ccc(OC(F)(F)F)cc1)C2=O [Example 54, 2-(4-Trifluoromethoxy-phenyl)-2-aza-spiro[4.5]decane-1,8-dione] | 640
CCC[C@]1(O)CC[C@]2(CCN(c3ccc(OC(F)(F)F)cc3)C2=O)CC1 [Example 55, (5α,8α)-8-Hydroxy-8-propyl-2-(4-trifluoromethoxy-phenyl)-2-aza-spiro[4.5]decan-1-one] | 20
CCC[C@]1(O)CC[C@@]2(CCN(c3ccc(OC(F)(F)F)cc3)C2=O)CC1 [Example 56, (5α,8β)-8-Hydroxy-8-propyl-2-(4-trifluoromethoxy-phenyl)-2-aza-spiro[4.5]decan-1-one] | 570
C[C@]1(O)CC[C@]2(CCN(c3ccc(OC(F)(F)F)cc3)C2=O)CC1 [Example 57, (5α,8α)-8-Hydroxy-8-methyl-2-(4-trifluoromethoxy-phenyl)-2-aza-spiro[4.5]decan-1-one] | 70
C[C@]1(O)CC[C@@]2(CCN(c3ccc(OC(F)(F)F)cc3)C2=O)CC1 [Example 58, (5α,8β)-8-Hydroxy-8-methyl-2-(4-trifluoromethoxy-phenyl)-2-aza-spiro[4.5]decan-1-one] | 950
CC1=CC[C@@]2(CC1)CCN(c1ccc(OC(F)(F)F)cc1)C2=O [Example 59, 8-Methyl-2-(4-trifluoromethoxy-phenyl)-2-aza-spiro[4.5]dec-7-en-1-one] | 1600
CC[C@]1(O)CC[C@]2(CCN(c3ccc(OC(F)(F)F)cc3)C2=O)CC1 [Example 60, (5α,8α)-8-Ethyl-8-hydroxy-2-(4-trifluoromethoxy-phenyl)-2-aza-spiro[4.5]decan-1-one] | 30
CC[C@]1(O)CC[C@@]2(CCN(c3ccc(OC(F)(F)F)cc3)C2=O)CC1 [Example 61, (5α,8β)-8-Ethyl-8-hydroxy-2-(4-trifluoromethoxy-phenyl)-2-aza-spiro[4.5]decan-1-one] | 2090
O=C1N(c2ccc(OC(F)(F)F)cc2)CC[C@]12CC[C@@](O)(Cc1ccccc1)CC2 [Example 62, (5α,8α)-8-Benzyl-8-hydroxy-2-(4-trifluoromethoxy-phenyl)-2-aza-spiro[4.5]decan-1-one] | 20
